Results on two substances are retold here after US6849722B2, “Polymerized oligopeptide-surfactant chiral micelles” (Board of Supervisors of Louisiana State University and …, priority 1998, dated 2005).

Data set [1] is described as follows: Critical micelle concentration by surface tension measurement. It is filed as physicochemical. Conditions: in pure water. The procedure:
Table 1 compares the structural features and physicochemical properties of L-SUV and L-SUVV. The critical micelle concentration (“CMC”) for both chiral surfactants was measured by following a linear decrease in surface tension as surfactant concentration increased, up to a point. After this point, no appreciable change in surface tension was observed. The point of intersection of the two lines (the linear decrease and the flat line thereafter) was taken as the CMC of the surfactants. The greater hydrophobicity of L-SUVV compared to L-SUV gave the former a lower CMC. In addition, an increase in the molecular weight decreased the mobility of L-SUVV toward the injector end. Thus, L-SUVV eluted faster than L-SUV, as it was carried more rapidly by bulk electroosmotic flow (EOF) towards the detection window.
All surfactants in this study were synthesized according to the procedure of Wang, J.; Warner, I. M. Anal. Chem. 1994, 66, 3773-3776. […] The critical micelle concentrations of the surfactants were determined by surface tension measurements as previously described. […] These numbers were calculated from average molecular weights as determined by ultracentrifugation. All monomers and polymers used in this study were 99% pure or better, as determined from elemental analysis.

Data set [2] is described as follows: Effective electrophoretic mobility by capillary zone electrophoresis/indirect photometric detection. Conditions: 100 mM boric acid and 5 mM Na2B4O7, pH 8.0; NMS light-absorbing electrolyte. It is filed as physicochemical.
The conditions of data set [3]: cited from earlier work.

For the substance “sodium N-undecylenyl-L-valine-L-valine [L-U-Val-Val]”, the “critical micelle concentration (CMC)” value in data set [1] was 10 mM. Further, the “effective electrophoretic mobility (μep)” value in data set [2] is recorded as −1.2 × 10^−4 cm^−2 V^−1 s^−1.

tris (hydroxymethyl)aminomethane: in data set [3], the pKa result is given as “around 8”.
